ChEMBL document CHEMBL1201862, “PubChem BioAssay data set” (2004)
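96-well plates; 48 h exposure; 5 concentrations. Endpoints by linear interpolation between flanking doses. Not reached: highest tested concentration assigned. The concentration for 50% growth inhibition is given as GI50.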 Active and inactive are the calls of the source. Rule as the data show it: active = GI50 up to about 1.1 µM and inactive = higher.

What was measured:
Test in all cases: inhibition of tumour cell growth, NCI panel, 48 h
[1] = tested on: 786-0
[2] = tested on: A498
[3] = tested on: A549
[4] = tested on: ACHN
[5] = tested on: BT-549
[6] = tested on: CAKI-1
[7] = tested on: COLO 205
[8] = tested on: DU-145
[9] = tested on: EKVX
[10] = tested on: HCC 2998
[11] = tested on: HCT-116
[12] = tested on: HCT-15
[13] = tested on: HL-60
[14] = tested on: HOP-62
[15] = tested on: HOP-92
[16] = tested on: HT-29
[17] = tested on: Hs-578T
[18] = tested on: IGROV-1
[19] = tested on: K562
[20] = tested on: KM12
[21] = tested on: LOX IMVI
[22] = tested on: M14
[23] = tested on: MCF7
[24] = tested on: MDA-MB-231
[25] = tested on: MDA-MB-435
[26] = tested on: MDA-N
[27] = tested on: MOLT-4
[28] = tested on: Malme-3M
[29] = tested on: NCI-H226
[30] = tested on: NCI-H23
[31] = tested on: NCI-H460
[32] = tested on: NCI-H522
[33] = tested on: NCI/ADR-RES
[34] = tested on: OVCAR-3
[35] = tested on: OVCAR-4
[36] = tested on: OVCAR-5
[37] = tested on: OVCAR-8
[38] = tested on: PC-3
[39] = tested on: RPMI-8226
[40] = tested on: RXF 393
[41] = tested on: SF-268
[42] = tested on: SF-295
[43] = tested on: SF-539
[44] = tested on: SK-MEL-28
[45] = tested on: SK-MEL-2
[46] = tested on: SK-MEL-5
[47] = tested on: SK-OV-3
[48] = tested on: SN12C
[49] = tested on: SNB-19
[50] = tested on: SNB-75
[51] = tested on: SW-620
[52] = tested on: T47D
[53] = tested on: TK-10
[54] = tested on: U-251
[55] = tested on: UACC-257
[56] = tested on: UACC-62
[57] = tested on: UO-31
[58] = tested on: CCRF-CEM

N#CC[N+]1(Cc2ccccn2)CCCC1.O=S(=O)([O-])c1ccccc1
GI50 [1]: > 100 µM (inactive) | GI50 [2]: > 100 µM (inactive) | GI50 [3]: > 100 µM (inactive) | GI50 [4]: > 100 µM (inactive) | GI50 [5]: > 100 µM (inactive) | GI50 [6]: > 100 µM (inactive) | GI50 [7]: > 100 µM (inactive) | GI50 [8]: > 100 µM (inactive) | GI50 [9]: > 100 µM (inactive) | GI50 [10]: > 100 µM (inactive) | GI50 [11]: > 100 µM (inactive) | GI50 [12]: > 100 µM | GI50 [13]: 70.6 µM (inactive) | GI50 [14]: > 100 µM (inactive) | GI50 [15]: > 100 µM (inactive) | GI50 [16]: > 100 µM (inactive) | GI50 [17]: > 100 µM (inactive) | GI50 [18]: > 100 µM (inactive) | GI50 [19]: > 100 µM (inactive) | GI50 [20]: > 100 µM (inactive) | GI50 [21]: > 100 µM (inactive) | GI50 [22]: > 100 µM (inactive) | GI50 [23]: > 100 µM (inactive) | GI50 [24]: > 100 µM (inactive) | GI50 [25]: > 100 µM (inactive) | GI50 [26]: > 100 µM (inactive) | GI50 [27]: 7.01 µM (inactive) | GI50 [28]: > 100 µM (inactive) | GI50 [29]: > 100 µM (inactive) | GI50 [30]: > 100 µM (inactive) | GI50 [31]: > 100 µM (inactive) | GI50 [32]: > 100 µM (inactive) | GI50 [33]: > 100 µM (inactive) | GI50 [34]: > 100 µM (inactive) | GI50 [35]: > 100 µM (inactive) | GI50 [36]: > 100 µM (inactive) | GI50 [37]: > 100 µM (inactive) | GI50 [38]: > 100 µM (inactive) | GI50 [39]: > 100 µM (inactive) | GI50 [40]: > 100 µM (inactive) | GI50 [41]: > 100 µM (inactive) | GI50 [42]: > 100 µM (inactive) | GI50 [43]: > 100 µM (inactive) | GI50 [44]: > 100 µM (inactive) | GI50 [45]: > 100 µM (inactive) | GI50 [46]: > 100 µM (inactive) | GI50 [47]: > 100 µM (inactive) | GI50 [48]: > 100 µM (inactive) | GI50 [49]: > 100 µM (inactive) | GI50 [50]: 58.9 µM (inactive) | GI50 [51]: > 100 µM (inactive) | GI50 [52]: > 100 µM (inactive) | GI50 [53]: > 100 µM (inactive) | GI50 [54]: > 100 µM (inactive) | GI50 [55]: > 100 µM (inactive) | GI50 [56]: > 100 µM (inactive) | GI50 [57]: > 100 µM (inactive)

CC1(C)N=C(N)N=C(N)N1c1cccc(OCc2cccc(N)c2)c1
GI50 [1]: 10.9 µM (inactive) | GI50 [2]: > 93.1 µM (inactive) | GI50 [3]: 7.21 µM (inactive) | GI50 [4]: > 100 µM (inactive) | GI50 [5]: > 65.9 µM (inactive) | GI50 [6]: > 100 µM (inactive) | GI50 [58]: 4.85 µM (inactive) | GI50 [7]: 37.8 µM (inactive) | GI50 [8]: > 86.3 µM (inactive) | GI50 [9]: > 88.3 µM (inactive) | GI50 [11]: 13.3 µM (inactive) | GI50 [12]: > 100 µM | GI50 [13]: 5.61 µM (inactive) | GI50 [14]: > 91.6 µM (inactive) | GI50 [15]: > 49 µM (inactive) | GI50 [16]: 16.9 µM (inactive) | GI50 [17]: > 100 µM (inactive) | GI50 [18]: 3.31 µM (inactive) | GI50 [19]: 3.17 µM (inactive) | GI50 [20]: 49.9 µM (inactive) | GI50 [21]: 9.46 µM (inactive) | GI50 [22]: 58.5 µM (inactive) | GI50 [23]: 39.9 µM (inactive) | GI50 [24]: > 71.4 µM (inactive) | GI50 [25]: 16.4 µM (inactive) | GI50 [26]: 6.1 µM (inactive) | GI50 [27]: 8.02 µM (inactive) | GI50 [28]: > 71.9 µM (inactive) | GI50 [29]: > 100 µM (inactive) | GI50 [30]: 14.2 µM (inactive) | GI50 [31]: 3.87 µM (inactive) | GI50 [32]: 26.4 µM (inactive) | GI50 [33]: > 100 µM (inactive) | GI50 [34]: 39.6 µM (inactive) | GI50 [35]: > 69.5 µM (inactive) | GI50 [36]: 26.9 µM (inactive) | GI50 [37]: > 83 µM (inactive) | GI50 [38]: > 38.7 µM (inactive) | GI50 [39]: 56.1 µM (inactive) | GI50 [40]: 41.9 µM (inactive) | GI50 [41]: 14.3 µM (inactive) | GI50 [42]: > 79.6 µM (inactive) | GI50 [43]: 19.9 µM (inactive) | GI50 [44]: > 100 µM (inactive) | GI50 [45]: > 100 µM (inactive) | GI50 [46]: 12.4 µM (inactive) | GI50 [47]: > 100 µM (inactive) | GI50 [48]: 19 µM (inactive) | GI50 [49]: 23.8 µM (inactive) | GI50 [50]: > 100 µM (inactive) | GI50 [51]: > 100 µM (inactive) | GI50 [52]: > 100 µM (inactive) | GI50 [53]: > 52.1 µM (inactive) | GI50 [54]: 14.7 µM (inactive) | GI50 [55]: 6.14 µM (inactive) | GI50 [56]: 6.11 µM (inactive) | GI50 [57]: > 100 µM (inactive)

Nc1ccc2nc3ccc(=O)cc-3n(-c3ccccc3)c2c1
GI50 [1]: 35.8 µM (inactive) | GI50 [2]: 32.8 µM (inactive) | GI50 [3]: > 100 µM (inactive) | GI50 [4]: > 100 µM (inactive) | GI50 [5]: 73.8 µM (inactive) | GI50 [58]: 62.8 µM (inactive) | GI50 [7]: 41 µM (inactive) | GI50 [8]: > 100 µM (inactive) | GI50 [9]: > 100 µM (inactive) | GI50 [10]: > 100 µM (inactive) | GI50 [11]: 34.4 µM (inactive) | GI50 [12]: > 100 µM | GI50 [13]: 59 µM (inactive) | GI50 [14]: 30.5 µM (inactive) | GI50 [15]: > 100 µM (inactive) | GI50 [16]: > 100 µM (inactive) | GI50 [17]: 75.9 µM (inactive) | GI50 [18]: 45.5 µM (inactive) | GI50 [19]: > 100 µM (inactive) | GI50 [20]: 7.18 µM (inactive) | GI50 [22]: > 100 µM (inactive) | GI50 [23]: 93.3 µM (inactive) | GI50 [24]: 38.7 µM (inactive) | GI50 [25]: 66.7 µM (inactive) | GI50 [26]: > 100 µM (inactive) | GI50 [27]: > 100 µM (inactive) | GI50 [28]: > 100 µM (inactive) | GI50 [29]: 67.9 µM (inactive) | GI50 [30]: > 100 µM (inactive) | GI50 [31]: > 100 µM (inactive) | GI50 [32]: 38.1 µM (inactive) | GI50 [33]: > 100 µM (inactive) | GI50 [34]: 31.8 µM (inactive) | GI50 [35]: > 100 µM (inactive) | GI50 [36]: > 100 µM (inactive) | GI50 [37]: > 100 µM (inactive) | GI50 [38]: 91.4 µM (inactive) | GI50 [39]: 39.5 µM (inactive) | GI50 [40]: 59.8 µM (inactive) | GI50 [41]: 58.2 µM (inactive) | GI50 [42]: > 100 µM (inactive) | GI50 [43]: 31.6 µM (inactive) | GI50 [44]: > 100 µM (inactive) | GI50 [45]: > 100 µM (inactive) | GI50 [46]: > 100 µM (inactive) | GI50 [47]: > 100 µM (inactive) | GI50 [48]: > 100 µM (inactive) | GI50 [49]: > 100 µM (inactive) | GI50 [50]: 28.2 µM (inactive) | GI50 [51]: > 100 µM (inactive) | GI50 [52]: > 100 µM (inactive) | GI50 [54]: 86.3 µM (inactive) | GI50 [56]: > 100 µM (inactive) | GI50 [57]: 78.9 µM (inactive)
